Results on 39 molecules are retold here after patent publication US9776979B2, “EBI2 modulators” (Sanford-Burnham Medical Research Institute, priority 2013, dated 2017).

The target in the assay is EBI2 (Homo sapiens, UniProt P32249). The assay is described as follows: Cell-based luminescent assay (EBI2 modulation). To be noted: cell-based luminescence; 7a,25-OHC final assay concentration 80 nM; 60 minutes incubation; read-out: IC50. In short, it runs like this: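 Cells plated overnight at 37° C, then exposed to compound at 4-5 uM final with 80 nM 7a,25-OHC agonist for 60 min at 37° C. Luminescence read after 60 min detection at 25° C in the dark; values normalized to neutral and stimulator controls and plate-pattern corrected.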
Sequence of EBI2 (P32249 whole entry): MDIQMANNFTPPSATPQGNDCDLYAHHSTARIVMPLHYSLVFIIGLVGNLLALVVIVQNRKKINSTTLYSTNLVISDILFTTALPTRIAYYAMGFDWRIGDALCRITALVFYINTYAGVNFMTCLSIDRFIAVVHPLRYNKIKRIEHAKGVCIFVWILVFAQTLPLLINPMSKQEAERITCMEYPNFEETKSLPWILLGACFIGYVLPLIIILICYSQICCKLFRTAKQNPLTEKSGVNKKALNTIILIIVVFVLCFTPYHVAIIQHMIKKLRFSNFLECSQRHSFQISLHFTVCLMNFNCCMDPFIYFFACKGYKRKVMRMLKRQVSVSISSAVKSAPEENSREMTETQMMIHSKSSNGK

The structures appear in SMILES notation. Where only a bound is given, the exact number is not on record here.

As for `O=C(C#Cc1ccc2c(c1)OCO2)C1CCN(C(=O)c2ccc(F)cc2)CC1` [Compound C112, 3-(2H-benzo[3,4-d]1,3-dioxolen-5-yl)-1-{1-[(4-fluorophenyl)carbonyl](4-piperidyl)}prop-2-yn-1-one], the 50% inhibitory concentration (IC50) is under 100 nM.
The figure for `O=C(/C=C/c1ccccc1F)N1CCN(C(c2ccccc2)c2ccccc2)CC1` [Compound C113, (2E)-1-[4-(diphenylmethyl)piperazinyl]-3-(2-fluorophenyl)prop-2-en-1-one] is under 100 nM.
Under `O=C(C#Cc1ccc2c(c1)OCO2)N1CCN(C(=O)c2ccc(Cl)cc2)CC1` [Compound C114, 3-(2H-benzo[3,4-d]1,3-dioxolen-5-yl)-1-{4-[(4-chlorophenyl)carbonyl]piperazinyl}prop-2-yn-1-one] stands under 100 nM.
The figure for `O=C(c1ccc(I)cc1)N1CCN(C(=O)c2cc3cc(Cl)ccc3[nH]2)CC1` [Compound C115, 5-chloroindol-2-yl 4-[(4-iodophenyl)carbonyl]piperazinyl ketone] is under 100 nM; for `O=C(C#Cc1ccccc1)N1CCN(C(=O)c2ccc(F)cc2)CC1` [Compound C116, 1-{4-[(4-fluorophenyl)carbonyl]piperazinyl}-3-phenylprop-2-yn-1-one] it is under 100 nM.
Take `O=C(C#Cc1cccc(Cl)c1)N1CCN(C(=O)c2ccc(C(F)(F)F)cc2)CC1` [Compound C117, 3-(3-chlorophenyl)-1-(4-{[4-(trifluoromethyl)phenyl]carbonyl}piperazinyl)prop-2-yn-1-one]: the IC50 is under 100 nM.
For the molecule `CC(C)CC(=O)N1CCN(C(=O)/C=C/c2ccc(Br)cc2)CC1` [Compound C118, (2E)-3-(4-bromophenyl)-1-[4-(3-methylbutanoyl)piperazinyl]prop-2-en-1-one], the IC50 is under 100 nM.
With `O=C(c1ccc(F)cc1)N1CCN(C(=O)c2cc3cc(Cl)ccc3[nH]2)CC1` [Compound C119, 5-chloroindol-2-yl 4-[(4-fluorophenyl)carbonyl]piperazinyl ketone], the half-inhibitory concentration (IC50) was under 100 nM.
As for `O=C(C#Cc1ccc2c(c1)OCO2)N1CCN(C(=O)c2ccc(Br)cc2)CC1` [Compound C120, 3-(2H-benzo[3,4-d]1,3-dioxolen-5-yl)-1-{4-[(4-bromophenyl)carbonyl]piperazinyl}prop-2-yn-1-one], the IC50 is under 100 nM.
With `Cc1ccc(C#CC(=O)N2CCN(Cc3ccc(F)cc3)CC2)cc1` [Compound C122, 1-{4-[(4-fluorophenyl)methyl]piperazinyl}-3-(4-methylphenyl)prop-2-yn-1-one], the IC50 is under 100 nM.
Under `O=C(c1cc2ccccc2s1)N1CCN(C(c2ccccc2)c2ccccc2)CC1` [Compound C123, benzo[b]thiophen-2-yl 4-(diphenylmethyl)piperazinyl ketone] stands under 100 nM.
As to `Cc1ccc(S(=O)(=O)N2CCN(C(=O)/C=C/c3ccc(F)cc3)CC2)cc1` [Compound C124, (2E)-3-(4-fluorophenyl)-1-{4-[(4-methylphenyl)sulfonyl]piperazinyl}prop-2-en-1-one], the IC50 is under 100 nM.
`O=C(c1cnc2ccccc2c1)N1CCN(C(c2ccccc2)c2ccccc2)CC1` [Compound C125, 4-(diphenylmethyl)piperazinyl 3-quinolyl ketone]: the IC50 was under 100 nM.
The figure for `O=C(c1cc2cc(F)ccc2[nH]1)N1CCN(C(c2ccccc2)c2ccccc2)CC1` [Compound C126, 4-(diphenylmethyl)piperazinyl 5-fluoroindol-2-yl ketone] is under 100 nM.
Consider `O=C(c1cccc(Cl)c1)N1CCN(C(=O)c2cc3cc(C(F)(F)F)ccc3[nH]2)CC1` [Compound C127, 4-[(3-chlorophenyl)carbonyl]piperazinyl 5-(trifluoromethyl)indol-2-yl ketone], for which the IC50 was under 100 nM.
Consider `O=C(C#Cc1ccc(F)cc1)N1CCN(C(=O)c2ccc(F)cc2)CC1` [Compound C128, 3-(4-fluorophenyl)-1-{4-[(4-fluorophenyl)carbonyl]piperazinyl}prop-2-yn-1-one], for which the IC50 was under 100 nM.
For `O=C(C#Cc1cccc(Cl)c1)N1CCN(Cc2ccc(F)cc2)CC1` [Compound C129, 3-(3-chlorophenyl)-1-{4-[(4-fluorophenyl)methyl]piperazinyl}prop-2-yn-1-one], the IC50 is under 100 nM.
`O=C(/C=C/c1ccc(Br)cc1)N1CCN(Cc2ccc(Cl)cc2F)CC1` [Compound C130, (2E)-3-(4-bromophenyl)-1-{4-[(4-chloro-2-fluorophenyl)methyl]piperazinyl}prop-2-en-1-one]: the IC50 was under 100 nM.
The figure for `O=C(/C=C/c1ccc(Br)cc1)N1CCN(Cc2ccc(F)cc2C(F)(F)F)CC1` [Compound C131, (2E)-3-(4-bromophenyl)-1-(4-{[4-fluoro-2-(trifluoromethyl)phenyl]methyl}piperazinyl)prop-2-en-1-one] is under 100 nM; for `O=C(C#Cc1cccc(Cl)c1Cl)N1CCN(C(=O)c2ccc(C(F)(F)F)cc2)CC1` [Compound C132, 3-(2,3-dichlorophenyl)-1-(4-{[4-(trifluoromethyl)phenyl]carbonyl}piperazinyl)prop-2-yn-1-one] it is under 100 nM.
Consider `O=C(c1ccc(C(F)(F)F)cc1)N1CCN(C(=O)c2cc3cc(C(F)(F)F)ccc3[nH]2)CC1` [Compound C133, 5-(trifluoromethyl)indol-2-yl 4-{[4-(trifluoromethyl)phenyl]carbonyl}piperazinyl ketone], for which the IC50 was under 100 nM.
The figure for `O=C(c1ccc(F)cc1)N1CCN(C(=O)c2cc3cc(Br)ccc3[nH]2)CC1` [Compound C135, 5-bromoindol-2-yl 4-[(4-fluorophenyl)carbonyl]piperazinyl ketone] is under 100 nM; for `O=C(NCC1CCN(C(=O)/C=C/c2ccc(Br)cc2)CC1)c1ccc(F)cc1` [Compound C136, N-({1-[(2E)-3-(4-bromophenyl)prop-2-enoyl](4-piperidyl)}methyl)(4-fluorophenyl)carboxamide] it is under 100 nM; for `O=C(C#Cc1ccc(C(F)(F)F)cc1)N1CCN(Cc2ccc(Cl)cc2)CC1` [Compound C137, 1-{4-[(4-chlorophenyl)methyl]piperazinyl}-3-[4-(trifluoromethyl)phenyl]prop-2-yn-1-one] it is under 100 nM.
The figure for `O=C(/C=C/c1ccc(F)cc1)N1CCN(S(=O)(=O)c2cccc(Cl)c2)CC1` [Compound C138, (2E)-1-{4-[(3-chlorophenyl)sulfonyl]piperazinyl}-3-(4-fluorophenyl)prop-2-en-1-one] is under 100 nM.
`O=C(C#Cc1ccccc1)N1CCN(C(c2ccccc2)c2ccccc2)CC1` [Compound C139, 1-[4-(diphenylmethyl)piperazinyl]-3-phenylprop-2-yn-1-one]: the half-inhibitory concentration (IC50) was under 100 nM.
As to `O=C(c1ccc(C(F)(F)F)cc1)N1CCN(C(=O)c2cc3cc(Br)ccc3[nH]2)CC1` [Compound C140, 5-bromoindol-2-yl 4-{[4-(trifluoromethyl)phenyl]carbonyl}piperazinyl ketone], the IC50 is under 100 nM.
Consider `O=C(C#Cc1cccc(Cl)c1Cl)N1CCN(Cc2ccc(F)cc2C(F)(F)F)CC1` [Compound C141, 3-(2,3-dichlorophenyl)-1-(4-{[4-fluoro-2-(trifluoromethyl)phenyl]methyl}piperazinyl)prop-2-yn-1-one], for which the IC50 was under 100 nM.
Under `O=C(c1cc2cc(C(F)(F)F)ccc2s1)N1CCN(C(c2ccccc2)c2ccccc2)CC1` [Compound C142, 4-(diphenylmethyl)piperazinyl 5-(trifluoromethyl)benzo[b]thiophen-2-yl ketone] stands under 100 nM; under `CC(C)(C)c1ccc(CN2CCN(C(=O)/C=C/c3ccc(Br)cc3)CC2)cc1` [Compound C144, (2E)-1-(4-{[4-(tert-butyl)phenyl]methyl}piperazinyl)-3-(4-bromophenyl)prop-2-en-1-one], under 100 nM.
As to `CCC(=O)N1CCN(C(=O)/C=C/c2ccc(Br)cc2)CC1` [Compound C145, (2E)-3-(4-bromophenyl)-1-(4-propanoylpiperazinyl)prop-2-en-1-one], the IC50 was under 100 nM.
The figure for `COc1ccc(/C=C/C(=O)N2CCN(S(=O)(=O)c3ccc(Br)cc3)CC2)cc1` [Compound C146, (2E)-1-{4-[(4-bromophenyl)sulfonyl]piperazinyl}-3-(4-methoxyphenyl)prop-2-en-1-one] is under 100 nM; for `O=C(/C=C/c1cc(F)c(F)c(F)c1)N1CCN(C(c2ccccc2)c2ccccc2)CC1` [Compound C147] it is under 100 nM; for `O=C(C#Cc1ccc(Br)cc1)N1CCN(C(=O)c2ccc(-c3nnn[nH]3)cc2)CC1` [Compound C149, 3-(4-bromophenyl)-1-{4-[(4-(5H-1,2,3,4-tetraazol-5-yl)phenyl)carbonyl]piperazinyl}prop-2-yn-1-one] it is under 100 nM.
Under `COc1ccc(C(=O)N2CCN(C(=O)c3cc4ccc(Cl)cc4[nH]3)CC2)cc1` [Compound C151, 6-chloroindol-2-yl 4-[(4-methoxyphenyl)carbonyl]piperazinyl ketone] stands under 100 nM; under `O=C(/C=C/c1ccc(Br)cc1)N1CCN(C(=O)c2ccc(-c3nnn[nH]3)cc2)CC1` [Compound C152, (2E)-3-(4-bromophenyl)-1-{4-[(4-(1H-1,2,3,4-tetraazol-5-yl)phenyl)carbonyl]piperazinyl}prop-2-en-1-one], under 100 nM; under `O=C(/C=C/c1ccc(Br)cc1)N1CCN(C(=O)c2ccc(B(O)O)cc2)CC1` [Compound C153, (E)-(4-(4-(3-(4-bromophenyl)acryloyl)piperazine-1-carbonyl)phenyl)boronic acid], under 100 nM.
On to `O=C(C=C(Br)c1ccc(Br)cc1)N1CCN(C(c2ccccc2)c2ccccc2)CC1` [Compound C155, 1-[4-(diphenylmethyl)piperazinyl]-3-bromo-3-(4-bromophenyl)prop-2-en-1-one], for which the IC50 is under 100 nM.
The figure for `O=C(c1cc2cc(F)ccc2s1)N1CCN(C(c2ccccc2)c2ccccc2)CC1` [Compound C156, 4-(diphenylmethyl)piperazinyl 5-fluorobenzo[b]thiophen-2-yl ketone] is under 100 nM.
